Data on 5 molecules can be found in patent US8735167B2, “Photoinduced signal amplification through externally sensitized photofragmentation in masked photosensitizers and photoamplified fluorescence turn-off system” (Colorado Seminary, which owns and operates The University …, priority 2007, dated 2014).

The conditions of series [1]: in non-polar solvents; cited from earlier work.
A short description of series [2]: 19F PFG NMR diffusion in ionic liquid. In kind it is physicochemical. The conditions noted are these: in N-methyl-N,N,N-trioctylammonium bis-triflylamide. The source says:
Another use of ionic liquids for photoamplified bioanalytical methods is for electrochemical detection. […] Unmasking of the sensitizer dramatically changes the redox properties of the system which can be utilized in electrochemical detection of photoamplification. Again, as mentioned above, ionic liquids can be gelated and used in a form of pixilated bioanalytical array. […] The ^19F PFG NMR measurements of diffusion of 4-(trifluoromethyl)benzophenone in N-methyl-N,N,N-trioctylammonium bis-triflylamide produced the translational diffusion coefficient of 9×10^−7 cm^2 s^−1, which is still adequate for bimolecular collisional quenching of triplet benzophenone, necessary for the photoamplification. N-Methyl-N,N,N-trioctylammonium bis-triflylamide is the most viscous ionic liquid which we tested in our experiments. Other, much less viscous ionic liquids, for example N,N-dimethyl-N,N-dihexylammonium bis-triflylamide, performed even better.

The nature of series [3]: Pulse Field Gradient 19F NMR diffusion in N-n-octadecylurea organogels made in t-butyl benzene. In kind it is physicochemical. The source says: The PFG NMR experiments allow for measuring diffusion coefficients of molecules of interest in complex mixtures, including gels. The successful photoamplification relies on adequate diffusion coefficients. The diffusion coefficients obtained for 4-trifluoromethylbenzophenone in gelated tert-butylbenzene and other solvents were within 10-15% of that in free (not gelated) solvents, which means that the gelation has no detrimental effect on photochemistry.

The nature of series [4]: Stern-Volmer fluorescence quenching of p-terphenyl. In kind it is physicochemical. Further details: unit not given here. The conditions noted are these: p-terphenyl 10^−5 M. The source says:
p-Oligophenylenes are known as durable fluorophores, and commonly used as a dye in dye lasers due to their resistance to photobleaching, a desirable characteristic for this application.

Series [5] is described as follows: Stern-Volmer fluorescence quenching of fluorene. Further details: unit not given here. The conditions noted are these: fluorene 10^−5 M, in CH2Cl2. Type of series: physicochemical.
For series [6] the following is noted: near diffusion controlled; previously shown; cited from earlier work.

Turning to `c1ccc2c(c1)Cc1ccccc1-2` [Fluorene], the fluorescence lifetime in series [1] was 10 ns.
For `O=C(c1ccccc1)c1ccc(C(F)(F)F)cc1` [4-trifluoromethyl-benzophenone, 4-trifluoromethylbenzophenone], the translational diffusion coefficient in series [2] is listed as 9×10^−7 cm^2 s^−1. Besides, the “Diffusion Coefficient” value in series [3] (0 % N-n-Octadecylurea, t-butyl benzene) is on record as 6.50 × 10^−6 cm^2 s^−1; in series [3] (2 % N-n-Octadecylurea, t-butyl benzene organogel) it was 5.32 × 10^−6 cm^2 s^−1; in series [3] (4 % N-n-Octadecylurea, t-butyl benzene organogel) it was 5.60 × 10^−6 cm^2 s^−1; in series [3] (6 % N-n-Octadecylurea, t-butyl benzene organogel), 5.34 × 10^−6 cm^2 s^−1. Besides, the “Difference of diffusion coefficient in gelated solvent from that in free (not gelated) solvent” value in series [3] (gelated tert-butylbenzene and other solvents) was 10-15%.
Take `CC1SCCCS1` [dithiane, 2-methyl-1,3-dithiane]: the “Ksv, fluorescence quenching of p-terphenyl” value (“Ksv … of p-terphenyl” below) in series [4] (in CH2Cl2) is reported as “smaller than for MDT BP adduct”.
In the case of `CC1(C(O)(c2ccccc2)c2ccccc2)SCCCS1` [MDT BP adduct, 2-methyl-1,3-dithiane benzophenone adduct], the results for the “Ksv … of p-terphenyl” value in series [4] (in CH2Cl2) and in series [4] (in t-BuPh) were 80 and 40, respectively. Further, the “Ksv, fluorescence quenching of fluorene” value in series [5] came to 2300. The “rate of quenching of benzophenone triplet via electron transfer reduction” value in series [6] is recorded as 10^9 M^−1 s^−1.
For the molecule `OC(c1ccccc1)c1ccccc1` [benzhydrol], the “Ksv … of p-terphenyl” value in series [4] (in CH2Cl2) was “smaller than for MDT BP adduct”.
